Series [1] relates to 1:1 complex of F′GG-CB[8]. Put plainly: ITC: secondary association of tripeptides with the 1:1 complex of F′GG-CB[8]. The class given is binding. The settings on record: for secondary association / binding to F′GG-CB[8]: in words; for Ka: 10 mM phosphate buffer pH 7.0, 298 K, averaged with three replicates. The procedure:
(§1) Isothermal titration calorimetry (ITC) was employed to study binding thermodynamics of heteropeptide dimerization (FIG. 2c and additional data not shown). Titration of F′GG (3.0 mM) into CB[8](0.1 mM) led to a stepwise binding curve with two transitions at molar ratios of 1.0 and 2.0 (FIG. 2c). The first-step binding constant (K1) is 6.6×10^5 M^−1, while the second-step (K2) is 9.4×10^3 M^−1. This indicates negative cooperativity where K1>K2^18,19,23 Such favourable 1:1 complexation enables secondary access of electron-rich aromatic peptides.
(§2) ITC experiments were operated on a Malvern MicroCal Auto-ITC200 apparatus at 298 K in 10 mM phosphate buffer with pH 7.0. In a of 1 injection of 0.6 μL and 32 consecutive injections of 1.2 μL with 90 s intervals between injections. The first data point was removed before analysis. The ITC data were fitted by MicroCal Analysis Centre software using one set of sites model. In a typical experiment for homoternary complexation, the host molecule (CB[8]) was loaded in the sample cell with a concentration of 0.1 mM, and the guest peptide was loaded in the syringe with a concentration of 2.0 mM. The injection and interval settings were the same as above. The first data point was removed from the data set before analysis. The obtained ITC curves were fitted by MicroCal Analysis Centre software using sequential binding model. All parameters were averaged with three replicates, s.d. n=3.
(In general: Isothermal titration calorimetry measures the heat released or taken up as one component is titrated into another.)

The conditions of series [2]: cited from earlier work.
Series [3] in a line: ITC: titration of F′GG into CB[8] (stepwise binding). The settings on record: F′GG (3.0 mM) into CB[8] (0.1 mM). As to the method:
as §1
as §2, with “All parameters were averaged with three replicates, s.d. n=3.” left out

Series [4] can be described thus: CD secondary structure verification of released insulin. Type of series: physicochemical. As to the method: CD measurements were performed on a Chirascan spectrometer (Applied Photophysics). Scans were carried out at 298 K from 200-500 nm at 1.0 nm intervals. The acquisition time was 0.5 second in a 0.1 cm path length quartz cuvette. CD spectra were collected using solutions from the above UV experiments of the 8-day storage and release experiments. […] All solutions were diluted 2× before the measurements. All scans were collected and averaged out over three scans with background noise correction.

Series [5] is described as follows: UV quantification of insulin on-resin recognition, 8-day storage and on-demand release. The class given is physicochemical. As to the method:
UV spectra were obtained on a Cary 4000 Ultravioletvisible Spectrometer. A pair of quartz cuvettes with 2 mm gap was used. Double beam mode with a fixed 2 nm spectral bandwidth and baseline correction were selected. In a typical run, 300 μl of 1 mM solution was transferred to the quartz cuvette and was scanned compared to phosphate buffer in D2O. UV spectra were obtained in the linear absorption range (0.2-0.8) for better quantification.
1 N HCl was immediately added to reach acid concentration of 5 mM. […] In a typical experiment, 8 μmol F′GGGGG equivalent of resin H2O suspension was added to a 12 ml syringe with a polyester frit (r=8.0 mm, h=2.0 mm). After H2Owas drained, 8 ml of 0.1 mM CB[8] solution was added to the resin and the plunge and a stopper were assembled to the syringe to form a sealed chamber. The syringe was transferred onto a wrist-action shaker and shaken for 12 hours. […] Then, the liquid (resin-treated solution) in syringe was drained thoroughly and the resin was washed with H2Oonce. After that, 0.8 ml of 2 mM DMADA solution (in 5 mM of HCl) was added to the resin and shaken gently for an additional 3 hours. The solution (released solution) was drained.
The 8-day storage and release experiment was conducted as follows. 9 syringes were prepared each with 8 μmol F′GGGGG equivalent of resin H2Osuspension. […] All syringes with the resin were kept at room temperature. Starting from day 0 to day 8, on each day, a syringe with resin was added with 0.8 ml of 2 mM DMADA solution (to get released solution, one per day). All yielded solutions were analyzed on UV spectroscopy immediately. Numbers to calculate released percentage in FIG. 4g were absorbance at 276 nm.

Square brackets hold non-standard residues; d marks the D form. Peptide text beside a SMILES is read from it. 2Nal = N[C@@H](Cc1ccc2ccccc2c1)C(=O)O

On to `NC(=O)CNC(=O)CNC(=O)[C@@H](N)CCC(=O)O` [EGG, reference compound] (H-Glu-Gly-Gly-NH2), for which the “secondary association / binding to F′GG-CB[8]” value (shortened to “secondary association / binding”) in series [1] was “no secondary association”.

Take `NC(=O)CNC(=O)CNC(=O)[C@@H](N)Cc1ccccc1` [FGG, (S)-2-amino-N-(2-((2-amino-2-oxoethyl)amino)-2-oxoethyl)-3-phenylpropanamide] (H-Phe-Gly-Gly-NH2): in series [1], the Ka was 356 ± 26 10^3M^−1. For the same compound, in series [2], the “binding strength K of homodimer 2FGG-CB[8]” value is listed as “ca. 10^11 M^−2”.

In the case of `NCC(=O)N[C@@H](Cc1ccccc1)C(=O)NCC(N)=O` [GFG, (S)—N-(2-amino-2-oxoethyl)-2-(2-aminoacetamido)-3-phenylpropanamide] (H-Gly-Phe-Gly-NH2), the Ka in series [1] is reported as 58 ± 3 10^3M^−1.

`NCC(=O)NCC(=O)N[C@@H](Cc1ccccc1)C(N)=O` [GGF, (S)-2-(2-(2-aminoacetamido)acetamido)-3-phenylpropanamide] (H-Gly-Gly-Phe-NH2): the Ka in series [1] is listed as 22 ± 1 10^3M^−1.

For `NCC(=O)NCC(=O)N[C@@H](Cc1ccc2ccccc2c1)C(N)=O` [GGNp, (S)-2-(2-(2-aminoacetamido)acetamido)-3-(naphthalen-2-yl)propanamide] (H-Gly-Gly-[2Nal]-NH2), the Ka in series [1] was 90 ± 2 10^3M^−1. In the case of `NCC(=O)NCC(=O)N[C@@H](Cc1ccc(O)cc1)C(N)=O` [GGY, (S)-2-(2-(2-aminoacetamido)acetamido)-3-(4-hydroxyphenyl)propanamide] (H-Gly-Gly-Tyr-NH2), the “secondary association / binding” value in series [1] is recorded as “no secondary binding”. Take `NCC(=O)N[C@@H](Cc1ccc2ccccc2c1)C(=O)NCC(N)=O` [GNpG, (S)—N-(2-amino-2-oxoethyl)-2-(2-aminoacetamido)-3-(naphthalen-2-yl)propanamide] (H-Gly-[2Nal]-Gly-NH2): the Ka in series [1] is recorded as 165 ± 10 10^3M^−1. For the compound `NCC(=O)N[C@@H](Cc1c[nH]c2ccccc12)C(=O)NCC(N)=O` [GWG, (S)—N-(2-amino-2-oxoethyl)-2-(2-aminoacetamido)-3-(1H-indol-3-yl)propanamide] (H-Gly-Trp-Gly-NH2), in series [1], the Ka is listed as 103 ± 6 10^3M^−1. The same measure, in the same setting: under `NCC(=O)N[C@@H](Cc1ccc(O)cc1)C(=O)NCC(N)=O` [GYG] (H-Gly-Tyr-Gly-NH2) stands 4 ± 0.3 10^3M^−1. On to `NCCCC[C@H](N)C(=O)NCC(=O)NCC(N)=O` [KGG, (S)-2,6-diamino-N-(2-((2-amino-2-oxoethyl)amino)-2-oxoethyl)hexanamide, reference compound] (H-Lys-Gly-Gly-NH2), for which the “secondary association / binding” value in series [1] is “no secondary association”. In the case of `CC(C)C[C@H](N)C(=O)NCC(=O)NCC(N)=O` [LGG, reference compound] (H-Leu-Gly-Gly-NH2), in series [1], the “secondary association / binding” value was “no secondary association”. In the case of `NC(=O)CNC(=O)CNC(=O)[C@@H](N)Cc1ccc2ccccc2c1` [NpGG, (S)-2-amino-N-(2-((2-amino-2-oxoethyl)amino)-2-oxoethyl)-3-(naphthalen-2-yl) propanamide] (H-[2Nal]-Gly-Gly-NH2), the Ka in series [1] is given as 382 ± 22 10^3M^−1. Take `NC(=O)CNC(=O)CNC(=O)[C@@H](N)Cc1c[nH]c2ccccc12` [WGG, (S)-2-amino-N-(2-((2-amino-2-oxoethyl)amino)-2-oxoethyl)-3-(1H-indol-3-yl) propanamide] (H-Trp-Gly-Gly-NH2): in series [1], the Ka is given as 460 ± 53 10^3M^−1.

Take `NC(=O)CNC(=O)CNC(=O)[C@@H](N)Cc1ccc(O)cc1` [YGG] (H-Tyr-Gly-Gly-NH2): the Ka in series [1] is 3 ± 5 10^3M^−1.

On to “(S)-2-amino-N-(2-((2-amino-2-oxoethyl)amino)-2-oxoethyl)-3-(perfluorophenyl) propenamide [F′GG]”, for which, in series [3], the “first-step binding constant (K1)” value turned out to be 660000 M⁻¹ and the “second-step binding constant (K2)” value stood at 9400 M⁻¹. “insulin: Insulin (Human Recombinant), purchased; widely-used biopharmaceutical for diabetes treatment”: in series [4] (after 2, 5, 8 days of storage under room temperature on functionalized resin), the “secondary structures of insulin after storage” value is recorded as “intact”. For the same compound, the “CD absorbance at 208 nm, signal (mean of repeats)” value in series [4] (insulin, original) is −56.4 θm · deg; in series [4] (released on day 2) it was −56.4 θm · deg; in series [4] (released on day 5) it was −50.3 θm · deg; in series [4] (released on day 8) it was −52.3 θm · deg. Also, the “UV absorbance at 276 nm, released” value is 0.176 abs in series [5] (release on day 0); 0.1768 abs in series [5] (release on day 2, storage at room temperature); 0.1683 abs in series [5] (release on day 5, storage at room temperature); 0.1739 abs in series [5] (release on day 8, storage at room temperature).

These data come from patent US20250257111A1, “Supramolecular Complex of a Biomolecule” (Cambridge Enterprise Limited, priority 2022, published 2025).
